Assay results published in US8022055B2, “Betulinic acid derivatives” (Dabur Pharma Limited, priority 2005, dated 2011).

Assays:
[1] = tested on: SW620; assay: three day MTT cytotoxicity assay, SW620; format: cell-based, human; details: SW620, 72 hours
Experimental: (§1) Briefly, a three day MTT cytotoxicity assay was performed, which is based on the principle of uptake of MTT (3-(4,5-dimethylthiazol-2-yl)-2,5-diphenyl tetrazolium bromide), a tetrazolium salt, by the metabolically active cells where it is metabolized by active mitochondria into a blue colored formazan product that is read spectrophotometrically. MIT was dissolved in phosphate buffered saline with a pH of 7.4 to obtain an MIT concentration of 5 mg/ml; the resulting mixture was filtered through a 0.22-micron filter to sterilize and remove a small amount of insoluble residue. For each type of tumor cell, 10,000 to 15,000 cells were seeded in a 96-well culture plate and incubated with the individual betulinic acid derivatives in a CO2 incubator for a total of 72 hours. Control cells not treated with the betulinic acid derivatives were similarly incubated. The assay was terminated by adding 100 μg (20 μl) of MIT to each well then incubating for additional one hour, and finally adding 50 μl of 10% SDS-0.01N HCl to each well to lyse the cells and dissolve formazan. After incubating for one hour, the plate was read spectrophotometrically at 540 nm and the percentage of cytotoxicity calculated using the following formula: Cytotoxicity percentage=100×[1−(X/R1)], where X=(absorbance of treated sample at 540 nm)−(absorbance of blank at 540 nm) R1=absorbance of control sample at 540 nm. The IC50 Values of the cytotoxicity defined as the concentration at which 50% of the cells are killed in vitro was calculated for each cell line treated with each of the betulinic acid derivatives.

[2] = tested on: PA1; assay: three day MTT cytotoxicity assay, PA1; format: cell-based, human; details: PA1, 72 hours
Experimental: as §1

[3] = tested on: HBL100; assay: three day MTT cytotoxicity assay, HBL100; format: cell-based, human
[4] = tested on: Miapaca; assay: three day MTT cytotoxicity assay, Miapaca; format: cell-based, human
[5] = tested on: DU145; assay: three day MTT cytotoxicity assay, DU145; format: cell-based, human; details: DU145, 72 hours
[6] = tested on: A549; assay: three day MTT cytotoxicity assay, A549; format: cell-based, human
[7] = Pharmacokinetic study after intravenous injection; details: rat, 10 mg/kg intravenous
Experimental: Blood samples were taken at various times after administration and plasma was prepared and frozen at −20° C. until analysis. The plasma sample were analyzed by a suitable HPLC method using a C-18 column. The pH of water is adjusted to 3.0 with phosphoric acid. Start the gradient with 70% acetonitrile for 5 minutes and increase the concentration up to 100% within 25 minutes followed by hold at 100% for 10 minutes. It is thus possible to construct the curve showing the plasma concentration as a function of time and to determine different pharmacokinetic parameter of compound studied.

[8] = tested on: various cancer cell lines; assay: in vitro cytotoxicity / anticancer activity, overall statement
[9] = tested on: NIH 3T3 cells; assay: NIH3T3 cytotoxicity test (72 h MTT assay); format: cell-based; details: NIH3T3, 72 hours
Procedure, shortened: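 Mouse NIH 3T3 fibroblasts exposed to a concentration range of compound for 72 hours; viable cells measured by MTT and growth inhibition calculated against untreated cultures. IC50 expressed in μg/ml; safety index is the NIH 3T3 IC50 divided by tumour-cell IC50.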

[10] = tested on: K562; assay: three day MTT cytotoxicity assay, K562; format: cell-based, human

SMILES: C=C(C)[C@@H]1CC[C@]2(C(=O)O)CC[C@]3(C)C(CCC4[C@@]5(C)Cc6c([nH]c7ccc(Cl)cc67)C(C)(C)C5CC[C@]43C)C12 (stereo partly drawn) [Compound 5, 5′-Chloro-2,3-didehydroindolo[2′,′:2,3]betulinic acid]
- IC50 for cell lines SW620 [1]: 2.7 µg/mL
- IC50 for cell lines PA1 [2]: 2.5 µg/mL
- IC50 for cell lines HBL100 ([3]; HBL100, 72 hours, MTT): 11.75 ± 1.65 µg/mL
- Specific Index (SI) for cell lines HBL100 ([3]; ratio of IC50 of NIH 3T3 cells to HBL100): 0.391
- IC50 for cell lines Miapaca ([4]; Miapaca, 72 hours, MTT): 2.44 ± 0.26 µg/mL
- Specific Index (SI) for cell lines Miapaca ([4]; ratio of IC50 of NIH 3T3 cells to Miapaca): 1.885
- IC50 for cell lines DU145 [5]: 4.9 µg/mL
- IC50 for cell lines A549 ([6]; A549, 72 hours, MTT): 7.14 ± 0.5 µg/mL
- Specific Index (SI) for cell lines A549 ([6]; ratio of IC50 of NIH 3T3 cells to A549): 0.644
- elimination (Kel) as compared to betulinic acid [7]: slower elimination
- pharmacokinetic properties (in words) [7]: significantly superior pharmacokinetic properties over betulinic acid
- plasma concentrations as compared to betulinic acid (II) [7]: quite high and long lasting
- systemic exposure (AUC0-∞) as compared to betulinic acid [7]: better systemic exposure
- AUC(0-e) ([7]; plasma): 78400 ng·h/mL
- C0 ([7]; plasma): 132.2 µg/mL
- T1/2 ([7]; plasma): 6.7 h
- Vd ([7]; plasma): 0.23 mL
- in vitro cytotoxicity / anticancer activity (in words) [8]: significantly improved anticancer activity over betulinic acid
- IC50 for cell lines NIH3T3 [9]: 4.6 ± 0.14 µg/mL
- IC50 for cell lines K562 ([10]; K562, 72 hours, MTT): 9.61 ± 0.78 µg/mL
- Specific Index (SI) for cell lines K562 ([10]; ratio of IC50 of NIH 3T3 cells to K562): 0.478
